Key:
[1] = molecular target: T1, Cholinesterase (Homo sapiens, UniProt P06276); experiment: Inhibition of human BuChE using butyrylthiocholine iodide as substrate measured for 1 min by spectrophotometric based Ellman's method
[2] = molecular target: T2, Acetylcholinesterase (Homo sapiens, UniProt P22303); experiment: Inhibition of human AChE using acetylthiocholine iodide as substrate measured for 1 min by spectrophotometric based Ellman's method
[3] = molecular target: T2, Acetylcholinesterase; experiment: Inhibition of human AChE using acetylthiocholine iodide as substrate at 100 uM measured for 1 min by spectrophotometric based Ellman's method relative to control
[4] = molecular target: T1, Cholinesterase; experiment: Inhibition of human BuChE using butyrylthiocholine iodide as substrate at 100 uM measured for 1 min by spectrophotometric based Ellman's method relative to control
[5] = species: Homo sapiens; experiment: Selectivity index, ratio of IC50 for inhibition of human AChE using acetylthiocholine iodide as substrate to inhibition of human BuChE using butyrylthiocholine iodide as substrate
[6] = Effective permeability of the compound at pH 7.4 at 100 uM measured after 3 to 6 hrs by PAMPA assay; format: ADME; settings: read-out: Peff
[7] = molecular target: Cholinesterase (Equus caballus, UniProt P81908); experiment: Inhibition of horse serum BuChE using butyrylthiocholine chloride as substrate by spectrophotometric based Ellman's method
Chain of Cholinesterase (Equus caballus, UniProt P81908) (P81908 whole entry): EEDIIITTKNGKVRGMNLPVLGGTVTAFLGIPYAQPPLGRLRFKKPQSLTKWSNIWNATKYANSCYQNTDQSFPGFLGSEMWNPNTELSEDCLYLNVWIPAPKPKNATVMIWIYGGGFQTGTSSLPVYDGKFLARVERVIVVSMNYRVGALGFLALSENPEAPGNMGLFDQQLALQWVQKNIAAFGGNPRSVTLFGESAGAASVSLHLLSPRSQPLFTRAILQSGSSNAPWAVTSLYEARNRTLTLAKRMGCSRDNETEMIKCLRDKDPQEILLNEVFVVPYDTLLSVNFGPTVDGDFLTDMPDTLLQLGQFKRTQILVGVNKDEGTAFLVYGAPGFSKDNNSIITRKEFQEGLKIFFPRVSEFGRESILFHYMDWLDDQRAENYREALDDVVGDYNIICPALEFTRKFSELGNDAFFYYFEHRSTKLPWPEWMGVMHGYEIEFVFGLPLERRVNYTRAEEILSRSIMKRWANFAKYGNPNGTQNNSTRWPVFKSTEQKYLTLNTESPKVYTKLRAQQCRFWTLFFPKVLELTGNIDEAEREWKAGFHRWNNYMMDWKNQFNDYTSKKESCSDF

T1 sequence (P06276 whole entry): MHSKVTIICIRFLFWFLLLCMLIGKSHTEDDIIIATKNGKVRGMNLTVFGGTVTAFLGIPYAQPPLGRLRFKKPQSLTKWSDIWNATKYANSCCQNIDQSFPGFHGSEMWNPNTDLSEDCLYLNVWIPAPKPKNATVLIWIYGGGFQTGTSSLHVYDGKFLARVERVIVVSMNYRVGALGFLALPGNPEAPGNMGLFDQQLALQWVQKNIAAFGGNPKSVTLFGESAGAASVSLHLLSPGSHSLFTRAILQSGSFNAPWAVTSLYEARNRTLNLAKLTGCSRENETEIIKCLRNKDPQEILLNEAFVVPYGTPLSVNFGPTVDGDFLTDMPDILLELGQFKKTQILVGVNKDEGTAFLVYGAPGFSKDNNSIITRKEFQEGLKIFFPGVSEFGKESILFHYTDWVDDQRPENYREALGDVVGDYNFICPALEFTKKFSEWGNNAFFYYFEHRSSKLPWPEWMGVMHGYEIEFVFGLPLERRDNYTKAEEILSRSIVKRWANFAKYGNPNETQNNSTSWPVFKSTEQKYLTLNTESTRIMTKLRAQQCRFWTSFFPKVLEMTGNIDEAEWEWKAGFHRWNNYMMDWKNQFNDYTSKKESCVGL
T2 sequence (P22303 whole entry): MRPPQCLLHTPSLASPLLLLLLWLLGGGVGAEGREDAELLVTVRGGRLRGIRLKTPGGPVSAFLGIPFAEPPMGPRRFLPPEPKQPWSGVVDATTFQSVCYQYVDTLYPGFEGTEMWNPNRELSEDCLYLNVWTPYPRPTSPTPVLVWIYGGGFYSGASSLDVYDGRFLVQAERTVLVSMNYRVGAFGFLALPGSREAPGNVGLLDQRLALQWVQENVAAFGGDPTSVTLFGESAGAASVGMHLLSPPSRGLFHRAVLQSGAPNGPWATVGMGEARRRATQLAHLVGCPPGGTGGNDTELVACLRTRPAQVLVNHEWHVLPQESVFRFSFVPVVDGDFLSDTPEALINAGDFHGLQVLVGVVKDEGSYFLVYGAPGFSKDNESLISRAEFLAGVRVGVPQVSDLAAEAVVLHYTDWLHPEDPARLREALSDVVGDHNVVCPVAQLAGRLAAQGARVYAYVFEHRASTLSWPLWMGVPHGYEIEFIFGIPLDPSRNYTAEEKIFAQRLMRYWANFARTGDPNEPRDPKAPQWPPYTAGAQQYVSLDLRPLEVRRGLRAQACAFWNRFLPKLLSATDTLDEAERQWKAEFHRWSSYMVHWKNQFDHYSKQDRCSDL

SMILES | IC50 [1] [µM] | IC50 [2] [µM] | inhibition [3] [%] | inhibition [4] [%] | Ratio IC50 [5] | Papp at 100 µM [6] [×10⁻⁶ cm/s] | IC50 [7] [µM]
COc1c2c(cc3c1OCO3)[C@]13C=C[C@H](OC)C[C@@H]1N(C2)C[C@H]3OC(=O)c1cccc([N+](=O)[O-])c1 | 81 | 48 |  |  |  |  | 
COc1c2c(cc3c1OCO3)[C@]13C=C[C@H](OC)C[C@@H]1N(C2)C[C@H]3OC(=O)c1ccc2ccccc2c1 | 14 | > 100 |  |  |  |  | 
COc1ccc(C(=O)O[C@@H]2C[N@@]3Cc4c(cc5c(c4OC)OCO5)[C@@]24C=C[C@H](OC)C[C@H]34)cc1OC |  |  | 15 | 33 |  |  | 
COc1c2c(cc3c1OCO3)[C@]13C=C[C@H](OC)C[C@@H]1[N@](C2)C[C@H]3OC(=O)c1ccc([N+](=O)[O-])cc1 | > 100 | > 100 | 31 | 37 |  |  | 
COc1c2c(cc3c1OCO3)[C@]13C=C[C@H](OC)C[C@@H]1N(C2)C[C@H]3OC(=O)C(C)C | > 100 | > 100 |  |  |  |  | 
COc1cccc(C(=O)O[C@@H]2CN3Cc4c(cc5c(c4OC)OCO5)[C@@]24C=C[C@H](OC)C[C@H]34)c1 | 6 | > 100 |  |  |  |  | 
COc1c2c(cc3c1OCO3)[C@]13C=C[C@H](OC)C[C@@H]1[N@](C2)C[C@H]3OC(=O)c1ccccc1[N+](=O)[O-] |  |  | 75 | 97 | 23 |  | 
COc1c2c(cc3c1OCO3)[C@]13C=C[C@H](OC)C[C@@H]1N(C2)C[C@H]3OC(=O)c1cccc2ccccc12 | 0.1 | > 100 |  |  |  | 9 | 
COc1c2c(cc3c1OCO3)[C@]13C=C[C@H](OC)C[C@@H]1[N@](C2)C[C@H]3OC(=O)c1cccc([N+](=O)[O-])c1 |  |  | 58 | 53 | 0.6 |  | 
COc1c2c(cc3c1OCO3)[C@]13C=C[C@H](OC)C[C@@H]1[N@](C2)C[C@H]3OC(C)=O |  |  | 4 | 28 |  |  | 
COc1c2c(cc3c1OCO3)[C@]13C=C[C@H](OC)C[C@@H]1N(C2)C[C@H]3OC(C)=O | > 100 | > 100 |  |  |  |  | 
COc1c2c(cc3c1OCO3)[C@]13C=C[C@H](OC)C[C@@H]1N(C2)C[C@H]3OC(=O)c1ccco1 | > 100 | > 100 |  |  |  |  | 
COc1c2c(cc3c1OCO3)[C@]13C=C[C@H](OC)C[C@@H]1[N@](C2)C[C@H]3OC(=O)c1ccoc1 |  |  | 12 | 61 | 1.9 |  | 
COc1c2c(cc3c1OCO3)[C@]13C=C[C@H](OC)C[C@@H]1N(C2)C[C@H]3OC(=O)c1ccccc1 | 3.8 | > 100 |  |  |  | 12 | 
COc1ccc(C(=O)O[C@@H]2CN3Cc4c(cc5c(c4OC)OCO5)[C@@]24C=C[C@H](OC)C[C@H]34)cc1OC | > 100 | > 100 |  |  |  |  | 
COc1c2c(cc3c1OCO3)[C@]13C=C[C@H](OC)C[C@@H]1N(C2)C[C@H]3OC(=O)c1ccoc1 | 32 | > 100 |  |  |  |  | 
C[C@@H]([C@H]1CC[C@@]2(C)[C@@H]3CC[C@@H]4C(=CC3=CC[C@]12C)C=C[C@H](NC(=O)c1ccccc1)C4(C)C)N(C)C |  |  |  |  |  |  | 1.7
CO[C@@H]1C=C[C@@]23c4cc5c(cc4CN(C[C@@H]2O)[C@H]3C1)OCO5 [(+)-HAEMANTHAMINE] | > 100 | > 100 | 6 | 13 |  |  | 
C[C@@H]([C@H]1[C@H](O)C[C@@]2(C)[C@@H]3CC[C@H]4C(C)(C)C(=O)C=C[C@@]45C[C@@]35CC[C@]12C)N(C)C |  |  |  |  |  |  | 1.1

SMILES | IC50 [1] [µM] | IC50 [2] [µM] | inhibition [3] [%] | inhibition [4] [%] | Ratio IC50 [5] | Papp at 100 µM [6] [×10⁻⁶ cm/s] | IC50 [7] [µM]
CCC(=O)O[C@@H]1C[N@@]2Cc3c(cc4c(c3OC)OCO4)[C@@]13C=C[C@H](OC)C[C@H]23 | > 100 | > 100 | 15 | 16 |  |  | 
COc1c2c(cc3c1OCO3)[C@]13C=C[C@H](OC)C[C@@H]1[N@](C2)C[C@H]3OC(=O)c1ccc(C)cc1 |  |  | 28 | 68 | > 4 |  | 
COc1c2c(cc3c1OCO3)[C@]13C=C[C@H](OC)C[C@@H]1[N@](C2)C[C@H]3OC(=O)c1ccco1 |  |  | 12 | 49 |  |  | 
COc1c2c(cc3c1OCO3)[C@]13C=C[C@H](OC)C[C@@H]1[N@](C2)C[C@H]3OC(=O)c1ccc2ccccc2c1 |  |  | 29 | 77 | 5.2 |  | 
COc1cccc(C(=O)O[C@@H]2C[N@@]3Cc4c(cc5c(c4OC)OCO5)[C@@]24C=C[C@H](OC)C[C@H]34)c1 |  |  | 25 | 91 | > 16 |  | 
CCOc1cc(OCC)cc(C(=O)O[C@@H]2C[N@@]3Cc4c(cc5c(c4OC)OCO5)[C@@]24C=C[C@H](OC)C[C@H]34)c1 | > 100 | > 100 | 30 | 42 |  |  | 
COc1c2c(cc3c1OCO3)[C@]13C=C[C@H](OC)C[C@@H]1N(C2)C[C@H]3OC(=O)c1ccc(C)cc1 | 28 | > 100 |  |  |  |  | 
COc1c2c(cc3c1OCO3)[C@]13C=C[C@H](OC)C[C@@H]1[N@](C2)C[C@H]3OC(=O)c1ccccc1 |  |  | 25 | 97 | > 26 |  | 
COc1c2c(cc3c1OCO3)[C@]13C=C[C@H](OC)C[C@@H]1[N@](C2)C[C@H]3OC(=O)C(C)C |  |  | 3 | 12 |  |  | 
COc1c2c(cc3c1OCO3)[C@]13C=C[C@H](OC)C[C@@H]1[N@](C2)C[C@H]3OC(=O)c1cccc2ccccc12 |  |  | 21 | 96 | > 1000 |  | 
COc1c2c(cc3c1OCO3)[C@]13C=C[C@H](OC)C[C@@H]1[N@](C2)C[C@H]3OC(=O)c1cccc(C)c1 |  |  | 41 | 98 | > 116 |  | 
COc1c2c(cc3c1OCO3)[C@]13C=C[C@H](OC)C[C@@H]1N(C2)C[C@H]3OC(=O)c1ccccc1[N+](=O)[O-] | 2.3 | 54 |  |  |  | 12 | 
COc1c2c(cc3c1OCO3)[C@]13C=C[C@H](OC)C[C@@H]1[N@](C2)C[C@H]3O | > 100 | > 100 | 4 | 8 |  |  | 
COc1c2c(cc3c1OCO3)[C@]13C=C[C@H](OC)C[C@@H]1N(C2)C[C@H]3OC(=O)c1cccc(C)c1 | 0.86 | > 100 |  |  |  | 8 | 
COc1c2c(cc3c1OCO3)[C@]13C=C[C@H](OC)C[C@@H]1[N@](C2)C[C@H]3OC(=O)c1ccccc1C | 0.28 | 55 | 51 | 99 | 195 | 19 | 
COc1ccccc1C(=O)O[C@@H]1C[N@@]2Cc3c(cc4c(c3OC)OCO4)[C@@]13C=C[C@H](OC)C[C@H]23 |  |  | 31 | 99 | > 235 |  | 
COc1ccccc1C(=O)O[C@@H]1CN2Cc3c(cc4c(c3OC)OCO4)[C@@]13C=C[C@H](OC)C[C@H]23 | 0.43 | > 100 |  |  |  | 12 | 
COc1ccc(C(=O)O[C@@H]2C[N@@]3Cc4c(cc5c(c4OC)OCO5)[C@@]24C=C[C@H](OC)C[C@H]34)cc1 | > 100 | > 100 | 26 | 32 |  |  | 
CCCCC(=O)O[C@@H]1C[N@@]2Cc3c(cc4c(c3OC)OCO4)[C@@]13C=C[C@H](OC)C[C@H]23 | > 100 | > 100 | 7 | 39 |  |  | 

Source: ChEMBL document CHEMBL4616657, “Aromatic Esters of the Crinane Amaryllidaceae Alkaloid Ambelline as Selective Inhibitors of Butyrylcholinesterase” (J Nat Prod, 2020)
